Here are results for 3 molecules from patent US10052340B2 (XIAMEN UNIVERSITY, priority 2012, dated 2018).

One experiment relates to KK-Ay mice. Nature of the experiment: Mouse trial, KK-Ay diabetes and obesity model mice fed with high-fat diet. It counts as in vivo. The following applies: for serum cholesterol / serum triglycerides: ivermectin/derivatives 1.3 mg/kg; for cholesterol in high density lipoprotein in serum / cholesterol in low density/very low density lipoprotein in serum / serum saccharides (glucose) level: 1.3 mg/kg i.p. daily, 14 days. The source says: In order to detect the efficacy of abamectin/avermectin, ivermectin and the derivative doramectin in the body of a diabetes and obesity mouse model, we choose diabetes and obesity mouse model mice, KK-Ay mice, as the experimental subject.

A further experiment relates to wild-type C57BL/6J mice. Description: Mouse trial, wild-type mice fed with high-fat diet. The following applies: high-fat diet, 1.3 mg/kg i.p. daily, 14 days. On the procedure:
(§1) Wild-type C57BL/6J mice of 9-10 weeks old, and FXR gene deletion homozygous mice (FXR^−/−) and diabetes and obesity mouse model mice (KK-Ay) with the same background are used, fed with high-fat diet (Research Diets, D12492), with free access to water, in SPF grade animal room in experimental animal center, Xiamen University. […] Intraperitoneal injection is performed one time at 9 o'clock every morning, continued for 14 days, and the mice are measured for body weight and the food intake every two days. At the end of 14 days, the mice are provided with free access to water, and after being hungry for 6 h, the mouse body weights are measured, and the percentage of the final body weight relative to the initial body weight before the treatment of the injection trial indicates the change of mouse body weight. Then blood is sampled from the eye balls, and sera are obtained by separation. The components in serum are detected by the following kits respectively: sugar-oxidase method (Beijing Applygen); insulin (Crystal Chem. Inc., USA); total cholesterol and cholesterol in high and low density lipoprotein (Bioassay Systems, USA); triglyceride (Beijing Applygen and WAKO Chemicals Inc., Japan); free fatty acids (Bioassay Systems, USA); and aspartate aminotransferase and alanine aminotransferase (Biosino Bio-technology and Science Inc., Beijing, China). Mouse liver is taken, a part of which is fixed with paraformaldehyde, and embedded with paraffin, sectioned, and stained with hematoxylin and eosin, and a part of which is cryopreserved with liquid nitrogen for use in extracting RNA for measuring gene expression with fluorescence quantitative PCR.

The test system of experiment [1] is FXR gene deletion homozygous mice (FXR−/−). Nature of the experiment: Mouse trial, FXR knockout mice fed with high-fat diet. Format: in vivo. The following applies: 1.3 mg/kg i.p. daily, 14 days. On the procedure: as §1
The mark [2] stands for this setting: i.p. daily 14 days, GW4064 30 mg/kg.

As to `CC(C)c1onc(-c2c(Cl)cccc2Cl)c1COc1ccc(/C=C/c2cccc(C(=O)O)c2)c(Cl)c1` [GW4064], the “serum free fatty acids” value with KK-Ay mice (i.p. daily 14 days, ivermectin 1.3 mg/kg, GW4064 30 mg/kg) was “significantly decrease”. For the same molecule, in the experiment with KK-Ay mice (setting [2]), the serum cholesterol entry is recorded as “significantly decrease” and the serum triglycerides result is “significantly decrease”.

For `CCC(C)[C@H]1O[C@]2(C=C[C@@H]1C)C[C@@H]1C[C@@H](C/C=C(\C)[C@@H](O[C@H]3C[C@H](OC)[C@@H](O[C@H]4C[C@@H](OC)[C@H](O)[C@@H](C)O4)[C@H](C)O3)[C@@H](C)/C=C/C=C3\CO[C@@H]4[C@H](O)C(C)=C[C@@H](C(=O)O1)[C@]34O)O2` (stereo partly shown) [abamectin/avermectin], in the experiment with KK-Ay mice, the “cholesterol in high density lipoprotein in serum” value was “significantly decrease”, the “cholesterol in low density/very low density lipoprotein in serum” value is on record as “significantly decrease” and the “serum saccharides (glucose) level” value is “significantly decrease”. Also, in the experiment with KK-Ay mice (setting [2]), the serum cholesterol entry is on record as “decreased” and the serum triglycerides result is recorded as “significantly decrease”. Further, in the experiment with wild-type C57BL/6J mice, the “cholesterol level in high density lipoprotein” value is reported as “significantly downregulated”; the “cholesterol levels in low density and very low density lipoprotein” value is given as “downregulated”; the serum cholesterol level entry is listed as “significantly decreases”; the serum glucose level entry is “significantly decreases”. The “serum triglyceride (Tg) level” value with wild-type C57BL/6J mice is “significantly decrease”.

In the case of `CO[C@H]1C[C@H](O[C@H]2[C@H](C)O[C@@H](O[C@@H]3/C(C)=C/C[C@@H]4C[C@@H](C[C@]5(C=C[C@H](C)[C@@H](C6CCCCC6)O5)O4)OC(=O)[C@@H]4C=C(C)[C@@H](O)[C@H]5OC/C(=C\C=C\[C@@H]3C)[C@]54O)C[C@@H]2OC)O[C@@H](C)[C@@H]1O` [doramectin], in experiment [1], the serum cholesterol level result is recorded as “not producing any significant change” and the serum glucose level result is recorded as “not producing any significant change”. Moreover, in the experiment with KK-Ay mice, the “cholesterol in high density lipoprotein in serum” value is “significantly decrease”, the “cholesterol in low density/very low density lipoprotein in serum” value is “significantly decrease” and the “serum saccharides (glucose) level” value was “significantly decrease”. In the experiment with KK-Ay mice (setting [2]), the serum cholesterol result is “decreased” and the serum triglycerides entry is on record as “significantly decrease”. For the same molecule, in the experiment with wild-type C57BL/6J mice, the “cholesterol level in high density lipoprotein” value is listed as “significantly downregulated”; the “cholesterol levels in low density and very low density lipoprotein” value is listed as “downregulated”; the serum cholesterol level result was “significantly decreases”; the serum glucose level result is reported as “significantly decreases”. Further, in the experiment with wild-type C57BL/6J mice, the “serum triglyceride (Tg) level” value is listed as “significantly decrease”.
